Results on 2 molecules are retold here after US6525021B1 (priority 1998, dated 2003).

As usually defined, the IC50 is the concentration at which inhibition is half-maximal. A low value points to greater potency. By EC50 is commonly meant the concentration needed to bring the measured effect to its halfway point.

Assay [1] has as its target rat neurotensin type 1 receptor (rNTR1) (Rattus norvegicus, UniProt P20789). Nature of the assay: biochemical. The format is binding.
In assay [2] the target is solubilized mouse neurotensin type 3 receptor (mNTR3) (Mus musculus, UniProt Q6PHU5). Put plainly: biochemical. The format is binding.
solubilized mouse neurotensin type 3 receptor (mNTR3), sequence (Q6PHU5 74-825 limits assumed): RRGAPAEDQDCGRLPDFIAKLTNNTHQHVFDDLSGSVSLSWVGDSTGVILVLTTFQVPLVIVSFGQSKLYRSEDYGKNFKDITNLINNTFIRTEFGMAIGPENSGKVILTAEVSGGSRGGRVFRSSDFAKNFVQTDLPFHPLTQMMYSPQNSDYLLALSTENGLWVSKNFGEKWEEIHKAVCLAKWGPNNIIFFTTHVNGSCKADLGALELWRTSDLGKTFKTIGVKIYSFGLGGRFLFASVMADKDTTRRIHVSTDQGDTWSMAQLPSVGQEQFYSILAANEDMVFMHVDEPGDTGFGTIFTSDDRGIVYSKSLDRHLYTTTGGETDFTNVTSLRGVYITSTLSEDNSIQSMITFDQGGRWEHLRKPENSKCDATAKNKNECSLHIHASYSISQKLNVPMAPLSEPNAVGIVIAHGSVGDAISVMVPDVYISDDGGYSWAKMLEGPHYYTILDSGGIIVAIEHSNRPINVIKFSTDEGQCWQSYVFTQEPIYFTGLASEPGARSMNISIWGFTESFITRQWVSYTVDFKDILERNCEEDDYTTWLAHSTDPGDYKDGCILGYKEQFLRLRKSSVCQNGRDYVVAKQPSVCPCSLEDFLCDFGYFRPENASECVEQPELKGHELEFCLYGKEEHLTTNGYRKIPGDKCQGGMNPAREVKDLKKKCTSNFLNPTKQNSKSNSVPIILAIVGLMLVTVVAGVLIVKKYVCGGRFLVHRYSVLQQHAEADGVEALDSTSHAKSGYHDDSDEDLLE
Assay [3] has as its target rNTR1 (Rattus norvegicus, UniProt P20789). Nature of the assay: cell-based. The format is cell-based.
Assay [4] deals with rNTR2 (Rattus norvegicus, UniProt Q63384). The format is cell-based.
rNTR2, sequence (Q63384 whole entry, looked up): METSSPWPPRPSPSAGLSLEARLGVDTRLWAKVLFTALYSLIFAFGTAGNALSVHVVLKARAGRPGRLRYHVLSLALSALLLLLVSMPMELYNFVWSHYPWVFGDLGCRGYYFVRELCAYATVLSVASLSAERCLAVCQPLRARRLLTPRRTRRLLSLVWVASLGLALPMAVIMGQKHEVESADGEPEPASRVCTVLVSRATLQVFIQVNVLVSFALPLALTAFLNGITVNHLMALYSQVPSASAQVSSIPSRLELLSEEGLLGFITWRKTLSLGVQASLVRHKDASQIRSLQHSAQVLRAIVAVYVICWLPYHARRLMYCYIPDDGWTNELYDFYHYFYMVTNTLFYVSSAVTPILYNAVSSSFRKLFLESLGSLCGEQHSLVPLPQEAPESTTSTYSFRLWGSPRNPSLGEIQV
Assay [5] addresses rat neurotensin type 2 receptor (rNTR2) (Rattus norvegicus, UniProt Q63384). Put plainly: biochemical. The assay is classed as binding.
Assay [6] concerns the target human neurotensin type 1 receptor (hNTR1) (Homo sapiens, UniProt P30989). Nature of the assay: biochemical. The assay is classed as binding.
On the set-up of assay [7]: species or system mice. The note with it: mouse, in vivo.

“Also recorded” adds a separate entry of the source. Non-standard residues stand in square brackets, D forms with d. Residues, ends and D or L forms follow the SMILES beside them. *: point of attachment. X1 = CC(=O)N[C@@H]1[C@@H](O[C@@H]2O[C@H](CO)[C@H](O)[C@H](O)[C@H]2O)[C@@H](O)[C@@H](CO)O[C@@H]1*; pGlu = O=C1CC[C@@H](C(=O)O)N1

rNTR1, sequence (P20789 whole entry, looked up): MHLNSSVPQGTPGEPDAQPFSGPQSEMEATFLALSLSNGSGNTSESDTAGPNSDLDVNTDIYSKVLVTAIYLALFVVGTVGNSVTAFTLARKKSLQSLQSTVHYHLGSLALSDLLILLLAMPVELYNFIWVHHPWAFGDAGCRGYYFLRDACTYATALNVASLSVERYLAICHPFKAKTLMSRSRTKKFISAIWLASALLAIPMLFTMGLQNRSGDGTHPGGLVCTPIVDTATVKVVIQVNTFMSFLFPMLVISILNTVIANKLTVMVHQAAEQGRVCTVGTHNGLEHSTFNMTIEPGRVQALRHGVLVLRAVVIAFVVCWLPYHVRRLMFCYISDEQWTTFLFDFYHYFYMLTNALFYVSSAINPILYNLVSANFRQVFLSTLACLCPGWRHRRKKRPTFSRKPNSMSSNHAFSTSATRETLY
rat neurotensin type 1 receptor (rNTR1), sequence (P20789 whole entry, looked up): as above
human neurotensin type 1 receptor (hNTR1), sequence (P30989 whole entry, looked up): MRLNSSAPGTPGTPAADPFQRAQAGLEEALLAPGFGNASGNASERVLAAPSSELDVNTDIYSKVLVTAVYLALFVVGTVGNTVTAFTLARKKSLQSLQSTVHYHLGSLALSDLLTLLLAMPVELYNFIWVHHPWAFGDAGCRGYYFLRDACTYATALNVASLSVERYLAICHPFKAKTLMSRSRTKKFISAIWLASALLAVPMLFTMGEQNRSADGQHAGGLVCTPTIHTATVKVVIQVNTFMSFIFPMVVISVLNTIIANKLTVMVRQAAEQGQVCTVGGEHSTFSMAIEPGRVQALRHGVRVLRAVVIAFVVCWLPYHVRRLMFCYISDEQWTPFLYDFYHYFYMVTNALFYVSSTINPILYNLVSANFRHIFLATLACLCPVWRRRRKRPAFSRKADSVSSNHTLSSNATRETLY
rat neurotensin type 2 receptor (rNTR2), sequence (Q63384 whole entry, looked up): as the sequence (Q63384 whole entry, looked up) above

On to `CC[C@H](C)[C@H](NC(=O)[C@H](Cc1ccc(O)cc1)NC(=O)[C@@H]1CCCN1C(=O)[C@H](CCCCN)NC(=O)[C@H](CCCCN)NC(=O)[C@@H](NC(=O)[C@H](C)NC(=O)[C@H](CC(N)=O)NC(=O)[C@H](CO)NC(=O)CNC(=O)CNC(=O)[C@H](CCC(=O)O)NC(=O)[C@H](CCC(=O)O)NC(=O)[C@H](CO)NC(=O)[C@@H]1CCC(=O)N1)[C@@H](C)O[C@H]1O[C@H](CO)[C@H](O)[C@H](O[C@@H]2O[C@H](CO)[C@H](O)[C@H](O)[C@H]2O)[C@H]1NC(C)=O)C(=O)N[C@@H](CC(C)C)C(=O)O` [contulakin-G] ([pGlu]SEEGGSNAT(X1)KKPYIL-OH), for which the IC50 stood at 524 nM in assay [1], 250 nM in assay [2], 730 nM in assay [5] and 960 nM in assay [6]. In assay [3], this molecule showed an EC50 of 20 to 30 nM. Besides, the “agonistic efficacy compared with Neurotensin1-13” value in assay [3] is recorded as “approximately half”. The “mode of action on CHO cells expressing the rNTR1” value in assay [3] is on record as “acted as agonists”. The agonist response result in assay [4] is given as “No response; also recorded: absence of any agonistic effect”.
As to “Δ1-9-Ser10-contulakin-G containing the native glycosylation on Ser10 [analog B]”, in assay [7], the “activity (onset and recovery time) compared with analog A” value is on record as “same activity”; the “time mice were drowsy” value stood at 100 min.
